Results published in patent US9113629B2, “4-amino-6-(4-substituted-phenyl)-picolinates and 6-amino-2-(4-substituted-phenyl)-pyrimidine-4-carboxylates and their use as herbicides” (DOW AGROSCIENCES LLC, priority 2013, dated 2015).

Key:
[1] = Post-emergent Test III, herbicidal activity in wheat and barley; assay type: in vivo, Lolium multiflorum, Lolium rigidum; conditions: Lolium multiflorum, post-emergence, 504 h, read-out: Visual Growth Reduction (%) 21 Days After Application LOLSS; for pest or weed control at 35 g/ha: 35 g ai/ha; for pest or weed control at 70 g/ha: 70 g ai/ha; for pest or weed control at 140 g/ha: 140 g ai/ha
Summary of the method: (§1)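 GR20, GR50, GR80 and GR90 come from probit analysis of visual injury scores (0 = none, 100 = complete kill) taken 21 d after treatment. Foliar application was by track sprayer delivering 187 L/ha at five rates, from high down to 1/16×, onto greenhouse plants at the 2–3 leaf stage, with solvent-blank controls.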

[2] = test system: APESV: bentgrass (Apera spica-venti); assay: as above; assay type: in vivo; conditions: for pest or weed control at 35 g/ha / pest or weed control at 70 g/ha / pest or weed control at 140 g/ha: Apera spica-venti, post-emergence, 504 h, read-out: Visual Growth Reduction (%) 21 Days After Application APESV; for pest or weed control at 35 g/ha: 35 g ai/ha; for pest or weed control at 70 g/ha: 70 g ai/ha; for pest or weed control at 140 g/ha: 140 g ai/ha; for GR50 APESV / GR80 APESV: probit analysis, 21 days after application; for GR50 APESV: dose for growth reduction of 50 percent; for GR80 APESV: dose for growth reduction of 80 percent
Summary of the method: as §1

[3] = test system: HORSS: barley, including spring and winter (Hordeum vulgare); assay: as above; assay type: in vivo; conditions: for pest or weed control at 35 g/ha / pest or weed control at 70 g/ha / pest or weed control at 140 g/ha: Hordeum vulgare, post-emergence, 504 h, read-out: Visual Growth Reduction (%) 21 Days After Application HORSS; for pest or weed control at 35 g/ha: 35 g ai/ha; for pest or weed control at 70 g/ha: 70 g ai/ha; for pest or weed control at 140 g/ha: 140 g ai/ha; for GR20 HORSS: probit analysis, dose for growth reduction of 20 percent, 21 days after application, crop
Summary of the method: as §1

[4] = test system: KCHSC: kochia (Kochia scoparia); assay: as above; assay type: in vivo; conditions: for pest or weed control at 35 g/ha / pest or weed control at 70 g/ha / pest or weed control at 140 g/ha: Bassia scoparia, post-emergence, 504 h, read-out: Visual Growth Reduction (%) 21 Days After Application KCHSC; for pest or weed control at 35 g/ha: 35 g ai/ha; for pest or weed control at 70 g/ha: 70 g ai/ha; for pest or weed control at 140 g/ha: 140 g ai/ha; for GR50 KCHSC / GR80 KCHSC: probit analysis, 21 days after application; for GR50 KCHSC: dose for growth reduction of 50 percent; for GR80 KCHSC: dose for growth reduction of 80 percent
Summary of the method: as §1

[5] = test system: LOLSS: ryegrass including, Italian ryegrass (Lolium multiflorum), rigid ryegrass (Lolium rigidum), annual ryegrass (Lolium multiflorum subsp. Gaudini); assay: as above; assay type: in vivo; conditions: probit analysis, 21 days after application; for GR50 LOLSS: dose for growth reduction of 50 percent; for GR80 LOLSS: dose for growth reduction of 80 percent
Summary of the method: as §1

[6] = test system: MATSS: scented mayweed (Matricaria chamomilla), pineappleweed (Matricaria matricarioides); assay: as above; assay type: in vivo; conditions: for pest or weed control at 35 g/ha / pest or weed control at 70 g/ha / pest or weed control at 140 g/ha: Matricaria chamomilla, post-emergence, 504 h, read-out: Visual Growth Reduction (%) 21 Days After Application MATSS; for pest or weed control at 35 g/ha: 35 g ai/ha; for pest or weed control at 70 g/ha: 70 g ai/ha; for pest or weed control at 140 g/ha: 140 g ai/ha; for GR50 MATSS / GR80 MATSS: probit analysis, 21 days after application; for GR50 MATSS: dose for growth reduction of 50 percent; for GR80 MATSS: dose for growth reduction of 80 percent
Summary of the method: as §1

[7] = test system: SETVI: green foxtail (Setaria viridis); assay: as above; assay type: in vivo; conditions: for pest or weed control at 35 g/ha / pest or weed control at 70 g/ha / pest or weed control at 140 g/ha: Setaria viridis, post-emergence, 504 h, read-out: Visual Growth Reduction (%) 21 Days After Application SETVI; for pest or weed control at 35 g/ha: 35 g ai/ha; for pest or weed control at 70 g/ha: 70 g ai/ha; for pest or weed control at 140 g/ha: 140 g ai/ha; for GR50 SETVI / GR80 SETVI: probit analysis, 21 days after application; for GR50 SETVI: dose for growth reduction of 50 percent; for GR80 SETVI: dose for growth reduction of 80 percent
Summary of the method: as §1

[8] = test system: TRZSS: wheat, including spring and winter (Triticum aestivum); assay: as above; assay type: in vivo; conditions: for pest or weed control at 35 g/ha / pest or weed control at 70 g/ha / pest or weed control at 140 g/ha: Triticum aestivum, post-emergence, 504 h, read-out: Visual Growth Reduction (%) 21 Days After Application TRZSS; for pest or weed control at 35 g/ha: 35 g ai/ha; for pest or weed control at 70 g/ha: 70 g ai/ha; for pest or weed control at 140 g/ha: 140 g ai/ha; for GR20 TRZSS: probit analysis, dose for growth reduction of 20 percent, 21 days after application, crop
Summary of the method: as §1

N#Cc1ccc(-c2nc(C(=O)O)c(Cl)c(N)c2F)cc1 [Compound 39]
pest or weed control at 35 g/ha [1]: 30 to 44% | pest or weed control at 70 g/ha [1]: 45 to 59% | pest or weed control at 140 g/ha [1]: 60 to 74% | pest or weed control at 35 g/ha [2]: 30 to 44% | pest or weed control at 70 g/ha [2]: 45 to 59% | pest or weed control at 140 g/ha [2]: 60 to 74% | GR50 APESV [2]: 70 g ai/ha | GR80 APESV [2]: >140 g ai/ha | pest or weed control at 35 g/ha [3]: 30 to 44% | pest or weed control at 70 g/ha [3]: 45 to 59% | pest or weed control at 140 g/ha [3]: 60 to 74% | GR20 HORSS [3]: 18 g ai/ha | pest or weed control at 35 g/ha [4]: 75 to 84% | pest or weed control at 70 g/ha [4]: 85 to 94% | pest or weed control at 140 g/ha [4]: 85 to 94% | GR50 KCHSC [4]: 3 g ai/ha | GR80 KCHSC [4]: 40 g ai/ha | GR50 LOLSS [5]: 82 g ai/ha | GR80 LOLSS [5]: >140 g ai/ha | pest or weed control at 35 g/ha [6]: 95 to 100% | pest or weed control at 70 g/ha [6]: 95 to 100% | pest or weed control at 140 g/ha [6]: 95 to 100% | GR50 MATSS [6]: 1 g ai/ha | GR80 MATSS [6]: 1 g ai/ha | pest or weed control at 35 g/ha [7]: 30 to 44% | pest or weed control at 70 g/ha [7]: 45 to 59% | pest or weed control at 140 g/ha [7]: 60 to 74% | GR50 SETVI [7]: 68 g ai/ha | GR80 SETVI [7]: >140 g ai/ha | pest or weed control at 35 g/ha [8]: 75 to 84% | pest or weed control at 70 g/ha [8]: 75 to 84% | pest or weed control at 140 g/ha [8]: 85 to 94% | GR20 TRZSS [8]: 1 g ai/ha

COC(=O)c1nc(-c2ccc(Br)cc2)c(F)c(N)c1Cl [Compound 138, Methyl 4-amino-6-(4-bromophenyl)-3-chloro-5-fluoropicolinate]
pest or weed control at 35 g/ha [1]: 60 to 74% | pest or weed control at 70 g/ha [1]: 75 to 84% | pest or weed control at 140 g/ha [1]: 85 to 94% | pest or weed control at 35 g/ha [2]: 85 to 94% | pest or weed control at 70 g/ha [2]: 85 to 94% | pest or weed control at 140 g/ha [2]: 95 to 100% | GR50 APESV [2]: 2 g ai/ha | GR80 APESV [2]: 12 g ai/ha | pest or weed control at 35 g/ha [3]: 85 to 94% | pest or weed control at 70 g/ha [3]: 85 to 94% | pest or weed control at 140 g/ha [3]: 95 to 100% | GR20 HORSS [3]: 1 g ai/ha | pest or weed control at 35 g/ha [4]: 95 to 100% | pest or weed control at 70 g/ha [4]: 95 to 100% | pest or weed control at 140 g/ha [4]: 95 to 100% | GR50 KCHSC [4]: 1 g ai/ha | GR80 KCHSC [4]: 4 g ai/ha | GR50 LOLSS [5]: 20 g ai/ha | GR80 LOLSS [5]: 66 g ai/ha | pest or weed control at 35 g/ha [6]: 60 to 74% | pest or weed control at 70 g/ha [6]: 85 to 94% | pest or weed control at 140 g/ha [6]: 85 to 94% | GR50 MATSS [6]: 16 g ai/ha | GR80 MATSS [6]: 51 g ai/ha | pest or weed control at 35 g/ha [7]: 85 to 94% | pest or weed control at 70 g/ha [7]: 85 to 94% | pest or weed control at 140 g/ha [7]: 95 to 100% | GR50 SETVI [7]: 8 g ai/ha | GR80 SETVI [7]: 32 g ai/ha | pest or weed control at 35 g/ha [8]: 85 to 94% | pest or weed control at 70 g/ha [8]: 85 to 94% | pest or weed control at 140 g/ha [8]: 85 to 94% | GR20 TRZSS [8]: 1 g ai/ha
